# Numbered stars: 1 amine (or outer) side, 2 acyl side, 3 side chain; on linkers, the order of the positions; unused ones are H or OH. Bridge positions count the residues as written; N and C are the ends. Square brackets hold non-standard residues; d marks the D form. Peptide text beside a SMILES is read from it. * marks the point of attachment. hTyr(3S-OH,4S-OH,3'-OSO3H) = N[C@H](C(=O)O)[C@H](O)[C@@H](O)c1ccc(O)c(OS(=O)(=O)O)c1; Orn(4R-OH,5R-OH) = O=C([C@H](C[C@@H](O)[C@@H](O)N[*:3])N[*:1])[*:2]; Pro(3S-OH,4S-Me) = C[C@H]1CN[C@H](C(=O)O)[C@H]1O; X1 = CCCCCOc1ccc(-c2cc(-c3ccc(C(=O)*)cc3)no2)cc1; Gln(3R-OH) = NC(=O)C[C@@H](O)[C@H](N)C(=O)O; Hyp = O=C(O)[C@@H]1C[C@@H](O)CN1
# Columns and labels:
# clinical = type: in vivo, human (adult patients); conditions: population estimate; for clearance: both sexes, human, in vivo, iv, two-compartment population model (Monolix 4.4), plasma HPLC-UV
# Description: This was a prospective pharmacokinetic study to compare adult patients with and without cancer. The study was conducted at King Saud University Medical City, a tertiary hospital. The study included male and female patients aged ≥ 18 years, who were admitted to the hospital and received a minimum of 2 micafungin doses based on empirical evidence or culture results. Patients who were pregnant and those with a micafungin allergy were excluded. The study protocol was approved by the Institutional Review Board of King Saud University Medical City (E-18-3373), and written informed consent was obtained from all patients before their inclusion in the study.
# All patients were treated with a 100–150 mg daily dose of micafungin for empirical use or confirmed fungal infection. Micafungin was diluted in 100 mL isotonic saline solution and infused over 60 min. Blood samples were drawn at 1, 2, 4, 6, 8, 12, and 24 h from the initiation of the micafungin dose. All blood samples were centrifuged, and plasma samples were stored at −80 °C until analysis.
# Plasma micafungin concentrations were determined using a high-performance liquid chromatography (HPLC) method with a UV detection system, with slight modification. Plasma samples were separated from whole blood, acidified with phosphoric acid, precipitated with acetonitrile, and centrifuged prior to dilution with buffer and injection into an HPLC system. Anidulafungin served as I.S. for micafungin. The method was fully validated and achieved using an isocratic Prominence Shimadzu HPLC system (Shimadzu, Columbia, MD, USA), which comprised an autosampler (SIL-20AHT), a UV detector (Shimadzu UV SPD-20A), and a pump (LC-20AB) connected to a degasser (Dgu-20A3). The separation of micafungin was performed on a Phenomenex Luna C18 column (250 × 4.6 mm i.d., 5 µm; Phenomenex, CA). The mobile phase comprised 0.1% (w/w) ammonium acetate in water, with pH adjusted to 7.0 with 25% NH3 solution and acetonitrile (70%:30%); the flow rate was 1 mL/min, and micafungin was detected at 273 nm. Data acquisition was achieved using LC Solution chromatographic software version 1.22 SP1 (Shimadzu, Columbia, MD, USA).
# Data from patients with and without cancer were comodeled using Monolix 4.4 software (Supplementary File S1). Monolix estimates pharmacokinetic parameters using the stochastic approximation expectation maximization algorithm. In the first step, we developed the base structural model for micafungin by fitting various compartmental models to plasma drug concentrations. The following criteria were followed to select between models: (a) a decrease in the minimum of the objective function value (log-likelihood value); (b) precision of the parameter estimation expressed as RSE (%) and calculated as the ratio between the standard error and final parameter estimate; (c) physiologic plausibility; and (d) GOF plots including observed and predicted concentrations, residuals plot, and visual predictive check.
# A covariate model was developed in a stepwise fashion, with forward inclusion based on model selection criteria. First, we plotted the empirical Bayesian estimates vs. covariates to screen for potentially significant correlations. Next, we performed a stepwise regression analysis to test the significant covariates identified in step 1, using the −2 log-likelihood ratio test. Age, body weight, height, BMI, sex, serum creatinine, creatinine clearance, sequential organ failure assessment score, and levels of AST, alanine transaminase, total bilirubin, and albumin were tested as covariates.
# GOF was assessed using the log-likelihood criterion during model building. Plots of model-based individual and population predictions vs. the observed concentrations were performed for model assessment. A predicted–corrected visual predictive check using 1000 simulations was constructed to study the performance of the final model. […]
# [1] = cited from earlier work
# Excerpt: Micafungin is metabolized in the liver by catechol O-methyltransferase, arylsulfatase, and hydroxylation. Only 1% of the unchanged drug is excreted through the kidneys. […] The elimination pharmacokinetics of micafungin in patients with advanced hepatic insufficiency are not fully understood. […] We described the plasma concentration-time curve of micafungin using a two-compartment model, similar to that described in previous studies. […] Overall, there were no differences in the ...
# [2] = patients with cancer (n = 10), 100 mg/day i.v.
# [3] = patients without cancer (n = 9), 100-150 mg/day i.v.
compound,measurement,setting,value
"CCCCCOc1ccc(-c2cc(-c3ccc(C(=O)N[C@H]4C[C@@H](O)[C@@H](O)NC(=O)[C@@H]5[C@@H](O)[C@@H](C)CN5C(=O)[C@H]([C@H](O)CC(N)=O)NC(=O)[C@H]([C@H](O)[C@@H](O)c5ccc(O)c(OS(=O)(=O)O)c5)NC(=O)[C@@H]5C[C@@H](O)CN5C(=O)[C@H]([C@@H](C)O)NC4=O)cc3)no2)cc1 [micafungin] (X1-[Orn(4R-OH,5R-OH)]T[Hyp][hTyr(3S-OH,4S-OH,3'-OSO3H)][Gln(3R-OH)][Pro(3S-OH,4S-Me)]; lactam 1-C)",clearance,"clinical; patients with cancer (n = 10), 100 mg/day i.v. infusion over 60 min",20 mL/min
same,clearance,"clinical; patients without cancer (n = 9), 100-150 mg/day i.v. infusion over 60 min",10 mL/min
same,Q (intercompartmental clearance),clinical; [2],0.144 L/h
same,V1 (volume of the central compartment),clinical; [2],10.7 L
same,V2 (volume of the peripheral compartment),clinical; [2],3.5 L
same,Q (intercompartmental clearance),clinical; [3],0.188 L/h
same,V1 (volume of the central compartment),clinical; [3],12 L
same,V2 (volume of the peripheral compartment),clinical; [3],2.77 L
same,terminal half-life,[1]; adults,approximately 15 h
same,unchanged drug excreted through the kidneys,[1],1%

# Reference: article PMC8615109, “Assessment of Micafungin Dosage Regimens in Patients with Cancer Using Pharmacokinetic/Pharmacodynamic Modeling and Monte Carlo Simulation” (Antibiotics, 2021)
